Laboratory results: US20040023807A1, “3-Arylisothiazoles and their use as herbicides” (priority 2000, published 2004)

Key:
[1] = test system: catchweed bedstraw (GALAP); test: greenhouse herbicidal action, post-emergence treatment; assay type: in vivo; conditions: application rates of 15.6 and 31.3 g of a.s./ha
Source text: (§1) The seeds of the test plants were sewn separately for each species. For the post-emergence treatment, the test plants were first grown to a height of from 3 to 15 cm, depending on the plant habit, and only then treated with the active compounds which had been suspended or emulsified in water. The test plants were for this purpose either sown directly and grown in the same containers, or they were first grown separately as seedlings and transplanted into the test containers a few days prior to treatment. The application rate for the post-emergence treatment was 31.3 and 15.6 g of a.s./ha. Depending on the species, the plants were kept at 10-25° C. or 20-35° C. The test period extended over 2 to 4 weeks. During this time, the plants were tended, and their response to the individual treatments was evaluated. The evaluation was carried out using a scale from 0 to 100. 100 means no emergence of the plants, or complete destruction of at least the above-ground parts, and 0 means no damage, or normal course of growth. The plants used in the greenhouse experiments were of the following species: [table]

dayflower (COMBE) = test: as above; assay type: in vivo; conditions: application rates of 15.6 and 31.3 g of a.s./ha
Source text: as §1

morning glory (IPOSS) = test: as above; assay type: in vivo; conditions: application rates of 15.6 and 31.3 g of a.s./ha
Source text: as §1

redroot pigweed (AMARE) = test: as above; assay type: in vivo; conditions: application rates of 15.6 and 31.3 g of a.s./ha
Source text: as §1

velvet leaf (ABUTH) = test: as above; assay type: in vivo; conditions: application rates of 15.6 and 31.3 g of a.s./ha
Source text: as §1

| melting point | SMILES | herbicidal action [1] | herbicidal action (dayflower (COMBE)) | herbicidal action (morning glory (IPOSS)) | herbicidal action (redroot pigweed (AMARE)) | herbicidal action (velvet leaf (ABUTH)) |
| --- | --- | --- | --- | --- | --- | --- |
| 161 to 164 °C | CS(=O)(=O)Nc1cc(-c2nsc(C(F)(F)F)c2Cl)c(Cl)cc1Cl [IAa.361, N-{2,4-Dichloro-5-[4-chloro-5-(trifluoromethyl)-3-isothiazolyl]-phenyl}methanesulfonamide] | – | – | – | – | – |
| – | COC(=O)C(C)Oc1cc(-c2nsc(C(F)(F)F)c2Cl)c(F)cc1Cl (stereo not shown) [IAa.727, Methyl 2-[2-chloro-4-fluoro-5-(4-chloro-5-trifluoromethylisothiazol-3-yl)phenoxy]propionate] | very good herbicidal action | very good herbicidal action | very good herbicidal action | very good herbicidal action | very good herbicidal action |
| 110 to 111 °C | FC(F)(F)c1snc(-c2c(Cl)cc(Cl)c3nc(C4CC4)oc23)c1Cl [IDa.67, 4,6-Dichloro-7-(4-chloro-5-trifluoromethyl-3-isothiazolyl)-2-cyclopropyl-1,3-benzoxazole] | – | – | – | – | – |
